Data from patent publication US20260027068A1, “METHODS OF ADM[…]-KETAMINE” (Perception Neuroscience, Inc., priority 2022, published 2026).

Tested on: subjects with TRD
Assay: Modified Observer's Assessment of Alertness/Sedation (MOAA/S)
Method: The Investigational Medicinal Product (IMP) R(−)-ketamine hydrochloride in sterile water for intravenous injection was investigated as an […] treatment of TRD. The International Union of Pure and Applied Chemistry (IUPAC) name is of the IMP is (2R)-2-(2-chlorophenyl)-2-(methylamino)cyclohexan-1-one. Subjects received the solution at either 30 mg or 60 mg dose, or a placebo. The IMP or placebo was administered on Day 1 as a single IV infusion via an electronic infusion pump over 40 minutes. The duration of study participation for each subject was up to 29 days including a screening period, a 3-day in-clinic visit, and 2 follow-up visits. 101 subjects were enrolled in approximately 20 study centers in the EU and the US.
The MOAA/S will were to determine if R(−)-ketamine causes the side effect of sedation and to what degree. Sedation was evaluated by the study staff using the MOAA/S. The observer recorded the subject's alertness pre-dose, every 20 minutes for first 2 hours post-dose, and at 4 and 6 hours after the start of the infusion.

[1] = 30 mg, 10 min post start of infusion, n 10
[2] = 30 mg, 20 min post start of infusion, n 33
[3] = 30 mg, 30 min post start of infusion, n 10
[4] = 30 mg, 40 min post start of infusion, n 33
[5] = 30 mg, 50 min post start of infusion, n 10
[6] = 30 mg, 1 hour 10 min post start of infusion, n 10
[7] = 30 mg, 1 hour 20 min post start of infusion, n 33
[8] = 30 mg, 1 hour 30 min post start of infusion, n 10
[9] = 30 mg, 1 hour 40 min post start of infusion, n 33
[10] = 30 mg, 1 hour 50 min post start of infusion, n 10
[11] = 30 mg, 1 hour post start of infusion, n 33
[12] = 30 mg, to 10 min post-start, n 10
[13] = 30 mg, to 20 min post-start, n 33
[14] = 30 mg, to 30 min post-start, n 10
[15] = 30 mg, to 40 min post-start, n 33
[16] = 30 mg, to 50 min post-start, n 10
[17] = 30 mg, to 1 hour 10 min post-start, n 10
[18] = 30 mg, to 1 hour 20 min post-start, n 33
[19] = 30 mg, to 1 hour 30 min post-start, n 10
[20] = 30 mg, to 1 hour 40 min post-start, n 33
[21] = 30 mg, to 1 hour 50 min post-start, n 10
[22] = 30 mg, to 1 hour post-start, n 33
[23] = 60 mg, 10 min post start of infusion, n 11
[24] = 60 mg, 20 min post start of infusion, n 35
[25] = 60 mg, 30 min post start of infusion, n 11
[26] = 60 mg, 40 min post start of infusion, n 35
[27] = 60 mg, 50 min post start of infusion, n 11
[28] = 60 mg, 1 hour 10 min post start of infusion, n 11
[29] = 60 mg, 1 hour 20 min post start of infusion, n 34
[30] = 60 mg, 1 hour 30 min post start of infusion, n 11

CN[C@@]1(c2ccccc2Cl)CCCCC1=O [PCN 101]
MOAA/S score, Mean [1]: 5.0
MOAA/S score, Median [1]: 5.0
MOAA/S score, Mean [2]: 4.9
MOAA/S score, Median [2]: 5.0
MOAA/S score, Mean [3]: 4.9
MOAA/S score, Median [3]: 5.0
MOAA/S score, Mean [4]: 4.8
MOAA/S score, Median [4]: 5.0
MOAA/S score, Mean [5]: 4.9
MOAA/S score, Median [5]: 5.0
MOAA/S score, Mean [6]: 5.0
MOAA/S score, Median [6]: 5.0
MOAA/S score, Mean [7]: 4.8
MOAA/S score, Median [7]: 5.0
MOAA/S score, Mean [8]: 5.0
MOAA/S score, Median [8]: 5.0
MOAA/S score, Mean [9]: 4.9
MOAA/S score, Median [9]: 5.0
MOAA/S score, Mean [10]: 5.0
MOAA/S score, Median [10]: 5.0
MOAA/S score, Mean [11]: 4.8
MOAA/S score, Median [11]: 5.0
MOAA/S score, Mean (30 mg, 2 hours, n 33): 5.0
MOAA/S score, Median (30 mg, 2 hours, n 33): 5.0
MOAA/S score, Mean (30 mg, 4 hours, n 31): 5.0
MOAA/S score, Median (30 mg, 4 hours, n 31): 5.0
MOAA/S score, Mean (30 mg, 6 hours, n 31): 5.0
MOAA/S score, Median (30 mg, 6 hours, n 31): 5.0
MOAA/S change from baseline, Mean [12]: 0.0
MOAA/S change from baseline, Median [12]: 0.0
MOAA/S change from baseline, Mean [13]: −0.1
MOAA/S change from baseline, Median [13]: 0.0
MOAA/S change from baseline, Mean [14]: −0.1
MOAA/S change from baseline, Median [14]: 0.0
MOAA/S change from baseline, Mean [15]: −0.2
MOAA/S change from baseline, Median [15]: 0.0
MOAA/S change from baseline, Mean [16]: −0.1
MOAA/S change from baseline, Median [16]: 0.0
MOAA/S change from baseline, Mean [17]: 0.0
MOAA/S change from baseline, Median [17]: 0.0
MOAA/S change from baseline, Mean [18]: −0.2
MOAA/S change from baseline, Median [18]: 0.0
MOAA/S change from baseline, Mean [19]: 0.0
MOAA/S change from baseline, Median [19]: 0.0
MOAA/S change from baseline, Mean [20]: −0.1
MOAA/S change from baseline, Median [20]: 0.0
MOAA/S change from baseline, Mean [21]: 0.0
MOAA/S change from baseline, Median [21]: 0.0
MOAA/S change from baseline, Mean [22]: −0.2
MOAA/S change from baseline, Median [22]: 0.0
MOAA/S change from baseline, Mean (30 mg, to 2 hours, n 33): −0.0
MOAA/S change from baseline, Median (30 mg, to 2 hours, n 33): 0.0
MOAA/S change from baseline, Mean (30 mg, to 4 hours, n 31): 0.0
MOAA/S change from baseline, Median (30 mg, to 4 hours, n 31): 0.0
MOAA/S change from baseline, Mean (30 mg, to 6 hours, n 31): 0.0
MOAA/S change from baseline, Median (30 mg, to 6 hours, n 31): 0.0
MOAA/S score, Mean [23]: 4.9
MOAA/S score, Median [23]: 5.0
MOAA/S score, Mean [24]: 4.8
MOAA/S score, Median [24]: 5.0
MOAA/S score, Mean [25]: 4.9
MOAA/S score, Median [25]: 5.0
MOAA/S score, Mean [26]: 4.8
MOAA/S score, Median [26]: 5.0
MOAA/S score, Mean [27]: 4.9
MOAA/S score, Median [27]: 5.0
MOAA/S score, Mean [28]: 5.0
MOAA/S score, Median [28]: 5.0
MOAA/S score, Mean [29]: 4.8
MOAA/S score, Median [29]: 5.0
MOAA/S score, Mean [30]: 5.0
MOAA/S score, Median [30]: 5.0
